Measurements reported in ChEMBL document CHEMBL5131472, “Synthesis and antiviral activity of formycin derivatives with anti-influenza virus activity” (Bioorg Med Chem, 2022).

Tests used:
[1] = Cytotoxicity against dog MDCK cells assessed as reduction in cell viability incubated for 48 hrs by CellTiter96 Aqueous one solution assay; assay type: toxicity, cell-based, Canis lupus familiaris
[2] = tested on: Influenza A virus; test: Antiviral activity against Influenza A virus A/WSN/33(H1N1) infected in dog MDCK cells assessed as reduction in viral titer in supernatants incubated for 24 hrs by plaque assay; assay type: functional, organism-based

For `CCc1ncnc2c([C@@H]3O[C@H](CO)[C@@H](O)[C@H]3O)n[nH]c12`, the CC50 at 48 h [1] was greater than 1000 µM.

With `OC[C@H]1O[C@@H](c2n[nH]c3c(N4CCOCC4)ncnc23)[C@H](O)[C@@H]1O` the CC50 at 48 h [1] was greater than 1000 µM.

`OC[C@H]1O[C@@H](c2n[nH]c3c(N4CCCCC4)ncnc23)[C@H](O)[C@@H]1O` showed a CC50 at 48 h [1] of 289 µM.

Work on `OC[C@H]1O[C@@H](c2n[nH]c3c(SCC(F)(F)F)ncnc23)[C@H](O)[C@@H]1O` yielded a CC50 at 48 h [1] of 64 µM and an IC50 [2] of 1.09 µM.

Work on `CCSc1ncnc2c([C@@H]3O[C@H](CO)[C@@H](O)[C@H]3O)n[nH]c12` yielded a CC50 at 48 h [1] greater than 1000 µM and an IC50 [2] of 0.201 µM.

Compound `Nc1ncnc2c([C@@H]3O[C@H](CO)[C@@H](O)[C@H]3O)[nH]nc12` [FORMYCIN] has a CC50 at 48 h [1] of 2.6 µM and an IC50 [2] of 0.029 µM.

`CSc1ncnc2c([C@@H](CO)OC(CO)CO)n[nH]c12` showed a CC50 at 48 h [1] greater than 1000 µM.

For `OC[C@H]1O[C@@H](c2n[nH]c3c(-n4ccnn4)ncnc23)[C@H](O)[C@@H]1O`, the CC50 at 48 h [1] was 287 µM and the IC50 [2] was 0.343 µM.

Work on `CSc1nc(O)nc2c([C@@H]3O[C@H](CO)[C@@H](O)[C@H]3O)n[nH]c12` yielded a CC50 at 48 h [1] greater than 1000 µM and an IC50 [2] greater than 1 µM.

Work on `CC(C)Sc1ncnc2c([C@@H]3O[C@H](CO)[C@@H](O)[C@H]3O)n[nH]c12` yielded a CC50 at 48 h [1] of 503 µM.

Work on `CCCCNc1ncnc2c([C@@H]3O[C@H](CO)[C@@H](O)[C@H]3O)n[nH]c12` yielded a CC50 at 48 h [1] greater than 1000 µM and an IC50 [2] of 0.68 µM.

Compound `OC[C@H]1O[C@@H](c2nn3c4c(ncnc24)SCC3)[C@H](O)[C@@H]1O` has a CC50 at 48 h [1] of 249 µM.

In the case of `CSCc1ncnc2c([C@@H]3O[C@H](CO)[C@@H](O)[C@H]3O)n[nH]c12`, the CC50 at 48 h [1] is reported as greater than 1000 µM.

In the case of `OC[C@H]1O[C@@H](c2n[nH]c3c(N4CCCC4)ncnc23)[C@H](O)[C@@H]1O`, the CC50 at 48 h [1] is reported as 211 µM.

For `CSc1ncnc2c([C@@H]3O[C@H](CO)[C@@H](O)[C@H]3O)nn(C)c12`, the CC50 at 48 h [1] was 205 µM and the IC50 [2] was 0.344 µM.

For `CCNc1ncnc2c([C@@H]3O[C@H](CO)[C@@H](O)[C@H]3O)n[nH]c12`, the CC50 at 48 h [1] was 5.7 µM and the IC50 [2] was 0.313 µM.

Compound `OC[C@H]1O[C@@H](c2n[nH]c3c(NC4CC4)ncnc23)[C@H](O)[C@@H]1O` has a CC50 at 48 h [1] of 431 µM.

Compound `CSc1ncnc2c([C@@H]3O[C@H](CO)[C@@H](O)[C@H]3O)n(C)nc12` has a CC50 at 48 h [1] greater than 1000 µM.

Compound `OC[C@H]1O[C@@H](c2n[nH]c3c(SC(F)(F)F)ncnc23)[C@H](O)[C@@H]1O` has a CC50 at 48 h [1] of 3.6 µM and an IC50 [2] of 0.397 µM.

Work on `OC[C@H]1O[C@@H](c2n[nH]c3c(-n4nccn4)ncnc23)[C@H](O)[C@@H]1O` yielded a CC50 at 48 h [1] of less than 0.1 µM and an IC50 [2] of 0.103 µM.

`CCCCSc1ncnc2c([C@@H]3O[C@H](CO)[C@@H](O)[C@H]3O)n[nH]c12` gave a CC50 at 48 h [1] of 238 µM.

`CSc1nc(SC)c2[nH]nc([C@@H]3O[C@H](CO)[C@@H](O)[C@H]3O)c2n1` showed a CC50 at 48 h [1] greater than 1000 µM and an IC50 [2] greater than 1 µM.

In the case of `COc1ncnc2c([C@@H]3O[C@H](CO)[C@@H](O)[C@H]3O)n[nH]c12`, the CC50 at 48 h [1] is reported as 1.2 µM and the IC50 [2] is reported as 0.088 µM.

For `CSc1ncnc2c([C@@H]3O[C@H](CO)[C@H](O)[C@H]3O)n[nH]c12`, the CC50 at 48 h [1] was greater than 1000 µM.

In the case of `OC[C@H]1O[C@@H](c2n[nH]c3c(-c4cnn[nH]4)ncnc23)[C@H](O)[C@@H]1O`, the CC50 at 48 h [1] is reported as greater than 1000 µM.

Compound `C[Se]c1ncnc2c([C@@H]3O[C@H](CO)[C@@H](O)[C@H]3O)n[nH]c12` has a CC50 at 48 h [1] of less than 0.1 µM and an IC50 [2] of 0.024 µM.

In the case of `CSc1ncnc2c([C@@H]3O[C@H](CO)[C@@H](O)[C@@H]3O)n[nH]c12`, the CC50 at 48 h [1] is reported as greater than 1000 µM and the IC50 [2] is reported as greater than 3 µM.

`CSc1nc(Cl)nc2c([C@@H]3O[C@H](CO)[C@@H](O)[C@H]3O)n[nH]c12` gave a CC50 at 48 h [1] greater than 1000 µM and an IC50 [2] greater than 1 µM.

`CSc1ncnc2c([C@@H]3O[C@H](CO)C[C@H]3O)n[nH]c12` showed a CC50 at 48 h [1] greater than 1000 µM.

Work on `CSc1ncnc2c([C@H]3C[C@H](O)[C@@H](CO)O3)n[nH]c12` yielded a CC50 at 48 h [1] greater than 1000 µM and an IC50 [2] greater than 3 µM.

With `CNc1ncnc2c([C@@H]3O[C@H](CO)[C@@H](O)[C@H]3O)n[nH]c12` the CC50 at 48 h [1] was 1.5 µM and the IC50 [2] was 0.015 µM.

Work on `CSc1ncnc2c([C@@H]3O[C@H](CO)[C@@H](O)[C@@]3(C)O)n[nH]c12` yielded a CC50 at 48 h [1] greater than 1000 µM and an IC50 [2] of 2.59 µM.

In the case of `CSc1ncnc2c([C@@H]3O[C@H](CO)[C@@H](O)[C@]3(C)O)n[nH]c12`, the CC50 at 48 h [1] is reported as greater than 1000 µM and the IC50 [2] is reported as 0.306 µM.

With `CSc1ncnc2c([C@@H]3O[C@H](CO)[C@@H](O)[C@H]3O)n[nH]c12` the CC50 at 48 h [1] was 9.3 µM and the IC50 [2] was 0.01 µM.

In the case of `CN(C)c1ncnc2c([C@@H]3O[C@H](CO)[C@@H](O)[C@H]3O)n[nH]c12`, the CC50 at 48 h [1] is reported as 70 µM and the IC50 [2] is reported as 2.84 µM.

Work on `OC[C@H]1O[C@@H](c2n[nH]c3c(NCCl)ncnc23)[C@H](O)[C@@H]1O` yielded a CC50 at 48 h [1] of 19 µM and an IC50 [2] of 0.282 µM.

`O=c1[nH]cnc2c([C@@H]3O[C@H](CO)[C@@H](O)[C@H]3O)n[nH]c12` [FORMYCIN B] showed a CC50 at 48 h [1] of 68 µM and an IC50 [2] of 3.63 µM.

In the case of `NC(=O)CSc1ncnc2c([C@@H]3O[C@H](CO)[C@@H](O)[C@H]3O)n[nH]c12`, the CC50 at 48 h [1] is reported as 307 µM.

Compound `OC[C@H]1O[C@@H](c2n[nH]c3c(S)ncnc23)[C@H](O)[C@@H]1O` has a CC50 at 48 h [1] of 403 µM and an IC50 [2] of 0.571 µM.

Work on `OC[C@H]1O[C@@H](c2n[nH]c3c(-n4cncn4)ncnc23)[C@H](O)[C@@H]1O` yielded a CC50 at 48 h [1] of 7.9 µM and an IC50 [2] of 0.251 µM.

Work on `CSc1ncnc2c([C@H]3C=C[C@@H](CO)O3)n[nH]c12` yielded a CC50 at 48 h [1] of 190 µM.

Compound `OC[C@H]1O[C@@H](c2n[nH]c3c([SeH])ncnc23)[C@H](O)[C@@H]1O` has a CC50 at 48 h [1] of 5.6 µM and an IC50 [2] of 0.035 µM.

In the case of `CC(C)Nc1ncnc2c([C@@H]3O[C@H](CO)[C@@H](O)[C@H]3O)n[nH]c12`, the CC50 at 48 h [1] is reported as greater than 1000 µM.

Work on `CN[C@H]1[C@H](O)[C@@H](CO)O[C@H]1c1n[nH]c2c(SC)ncnc12` yielded a CC50 at 48 h [1] of 49 µM.

Compound `C=CCSc1ncnc2c([C@@H]3O[C@H](CO)[C@@H](O)[C@H]3O)n[nH]c12` has a CC50 at 48 h [1] of 412 µM and an IC50 [2] of 0.22 µM.
